Values after ≈ are worked out from the molar mass of the structure shown.
Columns and labels:
Escherichia coli = test: Antibacterial activity against Escherichia coli ATCC 25922; format: functional
Pseudomonas aeruginosa = test: Antibacterial activity against Pseudomonas aeruginosa 14; format: functional
Klebsiella pneumoniae = test: Antibacterial activity against Klebsiella pneumoniae WNX-1; format: functional
L02 = test: Cytotoxicity against human L02 cells by SRB assay; format: functional, cell-based
K562 = test: Cytotoxicity against human K562 cells by MTT assay; format: functional, cell-based
A549 = test: Cytotoxicity against human A549 cells by SRB assay; format: functional, cell-based
HL-60 = test: Cytotoxicity against human HL-60 cells by MTT assay; format: functional, cell-based
Bel-7402 = test: Cytotoxicity against human Bel-7402 cells by SRB assay; format: functional, cell-based
MCF7 = test: Cytotoxicity against human MCF7 cells by SRB assay; format: functional, cell-based
HCT-116 = test: Cytotoxicity against human HCT-116 cells by SRB assay; format: functional, cell-based
MDA-MB-231 = test: Cytotoxicity against human MDA-MB-231 cells by SRB assay; format: functional, cell-based
Staphylococcus aureus = test: Antibacterial activity against Staphylococcus aureus ATCC 29213; format: functional
Bacillus subtilis = test: Antibacterial activity against Bacillus subtilis ATCC 6051; format: functional
Enterococcus faecalis = test: Antibacterial activity against Vancomycin resistant Enterococcus faecalis 1010798; format: functional

| Compound | MIC (Escherichia coli) [µg/mL] | MIC (Pseudomonas aeruginosa) [µg/mL] | MIC (Klebsiella pneumoniae) [µg/mL] | IC50 (L02) [µM] | IC50 (K562) [µM] | IC50 (A549) [µM] | IC50 (HL-60) [µM] | IC50 (Bel-7402) [µM] | IC50 (MCF7) [µM] | IC50 (HCT-116) [µM] | IC50 (MDA-MB-231) [µM] | MIC (Staphylococcus aureus) [µg/mL] | MIC (Bacillus subtilis) [µg/mL] | MIC (Enterococcus faecalis) [µg/mL] |
| --- | --- | --- | --- | --- | --- | --- | --- | --- | --- | --- | --- | --- | --- | --- |
| COLISTIN | 0.5 | 0.3 | 0.5 |  |  |  |  |  |  |  |  |  |  |  |
| Cc1c(O)cc2c3c1[C@H](C)[C@@H](C)O[C@H]3[C@@H]1CCCC[C@@]1(O)O2 | > 64 | > 64 | > 64 | > 30 | > 30 | > 30 | > 30 | > 30 | > 30 | > 30 | > 30 | > 64 | > 64 | > 64 |
| COc1cccc2c1C(=O)c1c(O)c3c(c(O)c1C2=O)C[C@@](O)(C(=O)CO)C[C@@H]3O[C@H]1C[C@H](N)[C@H](O)[C@H](C)O1 [DOXORUBICIN] |  |  |  | < 1 | < 1 | < 1 | < 1 | < 1 | < 1 | < 1 | < 1 |  |  |  |
| CO[C@]12CCCC[C@@H]1[C@H]1O[C@H](C)[C@@H](C)c3c(C)c(O)cc(c31)O2 | > 64 | > 64 | > 64 | > 30 | > 30 | 19 | > 30 | 17 | > 30 | > 30 | > 30 | > 64 | > 64 | > 64 |
| Cc1c(O)cc(O)c2c1[C@H](C)[C@@H](C)OC21CCCCC1 | > 64 | > 64 | > 64 | > 30 | 8.8 | 28 | 20 | 12 | 15 | 24 | 26 | 16 (≈ 57.9 µM) | 32 (≈ 116 µM) | 32 (≈ 116 µM) |
| CO[C@@]12CCCC[C@H]1[C@@H]1O[C@H](C)[C@@H](C)c3c(C)c(O)cc(c31)O2 | > 64 | > 64 | > 64 | > 30 | 26 | > 30 | > 30 | > 30 | > 30 | > 30 | > 30 | 64 (≈ 201 µM) | 32 (≈ 100 µM) | 32 (≈ 100 µM) |
| Cc1c(O)cc2c3c1[C@H](C)[C@@H](C)O[C@H]3[C@H]1CCCC[C@@]1(O)O2 | > 64 | > 64 | > 64 | > 30 | > 30 |  |  |  |  |  | > 30 | > 64 | > 64 | > 64 |
| Cc1c(O)cc2c3c1[C@H](C)[C@@H](C)O[C@@H]3[C@@H]1CCCC[C@]1(O)O2 | > 64 | > 64 | > 64 | > 30 | > 30 | > 30 | > 30 | > 30 | > 30 | > 30 | > 30 | > 64 | > 64 | > 64 |
| C/C=C/[C@@H]1C=C[C@@H]2C[C@H](C)CC[C@H]2[C@]1(C)/C(O)=C1/C(=O)[C@H](CO)N(C)C1=O |  |  |  |  |  |  |  |  |  |  |  | 2 (≈ 5.35 µM) | 1 (≈ 2.68 µM) | 2 (≈ 5.35 µM) |
| Cc1c(O)cc2c3c1[C@H](C)[C@@H](C)O[C@@H]3[C@H]1CCCC[C@]1(O)O2 | > 64 | > 64 | > 64 | > 30 | > 30 | > 30 | > 30 | > 30 | > 30 | > 30 | > 30 | > 64 | > 64 | > 64 |

Source: ChEMBL document CHEMBL4823257, “Penitol A and Penicitols E-I: Citrinin Derivatives from Penicillium citrinum and the Structure Revision of Previously Proposed Analogues” (J Nat Prod, 2021)
